Paper doi:10.1101/2025.04.25.650653, “Hierarchical small molecule inhibition of MYST acetyltransferases” (bioRxiv, 2025)
Several values for one entry are separate records, joined by “and”; a condition that tells them apart may be missing. Identical values can stand only once.

System: histone modifications in MCF-7 cells
Assay: Histone modification analysis by bottom-up LC-MS/MS
Format: cell-based
Conditions: for Average ratio, H2A1_12_17 unmod (AKAKTR): peptide H2A1_12_17 unmod; for Average ratio, H2A1_12_17 unmod (AKAKTR) / Average ratio, H2A3_12_17 K15me1 (AKAKSR) / Ratio, H2A1_12_17 unmod / Ratio, H2A3_12_17 K15me1: MCF-7; for Average ratio, H2A1_12_17 unmod (AKAKTR) / Average ratio, H2A3_12_17 K15me1 (AKAKSR): average of 3 replicates; for Average ratio, H2A3_12_17 K15me1 (AKAKSR): peptide H2A3_12_17 K15me1; for Ratio, H3_3_8 K4me1 / Ratio, H3_3_8 unmod / Ratio, H3_54_63 unmod / Ratio, H3_41_49 unmod: Replicates 1-3
Text: In this approach. […] Histones are then extracted from cell pellets and chemically derivatized with propionic anhydride, digested with trypsin, subjected to a second round of propionylation, and analyzed by LC-MS/MS. Measuring the relative intensity of modified versus unmodified forms of individual histone peptides enables simultaneous monitoring of multiple potential biomarkers of MYST inhibition. To minimize false positives, we focused on abundant and reproducible modifications (average stoichiometry of greater than 1% across triplicate samples, standard deviation less than or equal to the average measurement). To account for potential histone modification crosstalk, changes in both acetylated and methylated peptides were evaluated. 38 modified peptides passed this reproducible detection threshold including several established KAT biomarkers[41] including H3K9Ac (KAT2A/B), H3K18Ac (KAT3A/B), H3K14Ac (KAT7), H3K23Ac (KAT6A/B), H4K16Ac (KAT8), and H2A.ZK4/K7Ac (KAT5; Fig. 4B).
Histone modification analysis
MCF-7 cells were cultured at 37 °C under 5% CO2 in EMEM (Quality Biological, 112-016-101) with 0.01 mg/mL human recombinant insulin (Sigma Aldrich, 91077C), 2 mM L-glutamine (Quality Biological, 118- […]
human recombinant insulin.
1119, WM-3835). Following 24 h inhibitor treatment, cells were washed with ice-cold 1× PBS and scraped in 150 µL of Nuclear Isolation Buffer (NIB) containing 0.1% NP-40 for histone extraction using a modified protocol from the Garcia laboratory. 9 Briefly, cell suspensions were incubated on ice for 5 minutes, and […]
nuclei were pelleted by centrifugation (600 rcf, 4°C, 5 min). Pelleted nuclei were washed twice with 150 μL of detergent-free NIB buffer, followed by centrifugation (600 rcf, 4°C, 5 min) to remove all detergent.
Nuclei were then resuspended in 400 μL of 0.4 N H₂SO₄ and rotated at 4°C overnight for acid extraction of histones. The following day, samples were centrifuged (11,000 rcf, 4°C, 10 min) and the histone-containing supernatant was transferred to a fresh tube. Trichloroacetic acid (100% TCA) was added to achieve a final concentration of 20% (v/v), tubes were inverted once to mix, and histone precipitation was performed on ice for at least 3 hours or overnight at 4°C. Precipitated histones were collected by centrifugation (11,000 rcf, 4°C, 10 min) and the supernatant carefully removed, leaving a visible film of histones on the tube wall or bottom. Histone pellets were subjected to sequential washes with 1 mL of ice-cold acidified acetone (0.1% 12 N HCl) followed by 1 mL of 100% ice-cold acetone, with centrifugation (11,000 rcf, 4°C, 5 min) after each wash. Samples were air-dried at room temperature, resuspended in 40 µL of ddH₂O, and protein […]
analysis, 1-2 µg of purified histones were loaded per lane and processed according to the general immunoblotting protocol described in General Materials and Methods.
Analysis of histone modifications by LC-MS/MS
Preparation of histone samples for LC-MS/MS was performed analogously to the procedure for immunoblotting above, with the following modifications. MCF7 cells (4.2 × 106) were seeded in 15 cm dishes and treated with PF-9363 or vehicle. Experiments were performed in triplicate. Following treatment and PBS washing, cells were scraped and collected in 15 mL falcon tubes, pelleted (500 rcf, 4°C, 5 min), resuspended in 1 mL cold PBS, transferred to microcentrifuge tubes, and pelleted again before flash-freezing in liquid nitrogen for storage at -80°C. For extraction, cell pellets (~100 μL) were resuspended in NIB buffer at a 1:10 ratio, and cells were lysed with NIB buffer containing 0.2% NP-40 for 8 minutes on ice. Nuclei were pelleted at 1,000 rcf for 8 minutes and washed three times with 500 μL detergent-free NIB buffer. Histones were extracted using 800 μL of 0.2 M H₂SO₄, and after centrifugation (3,400 rcf, 4°C, 10

[1] = TKQTAR(H3_3_8), PF-9363 0.1 v 30
[2] = TKQTAR(H3_3_8), PF-9363 (0.1 mM)
[3] = TKQTAR(H3_3_8), PF-9363 (30 mM)

## COc1cccc(OC)c1S(=O)(=O)Nc1noc2cc(Cn3cccn3)cc(OC)c12 [PF-9363]
PF-9363 (0.1 mM)
  Average ratio, H2A1_1_11 K5ac: 0.8521
  Average ratio, H2A1_4_11 K5ac: 0.0421
  Average ratio, H2A1_4_11 K9ac: 0.0404
  Average ratio, H2A1_4_11 unmod: 0.9065
  Average ratio, H2A1_36_42 unmod: 0.9991
  Average ratio, H2A3_36_42 unmod: 1.0000
  Average ratio, H2AJ_4_11 K5acK9ac: 0.8702
  Average ratio, H2AV_1_19 K4ac: 0.0404
  Average ratio, H2AV_1_19 unmod: 0.8917
  Average ratio, H2AX_36_42 unmod: 1.0000
  Average ratio, H2AZ_1_19 K11ac: 0.0091
  Average ratio, H2AZ_1_19 unmod: 0.8729
  Average ratio, H3_73_83 K79me1: 0.0887
  Average ratio, H3_73_83 K79me2: 0.0735
  Average ratio, H3_73_83 unmod: 0.8364
  Average ratio, H4_4_17 K12acK16ac: 0.0092
  Average ratio, H4_4_17 unmod: 0.6321
  Average ratio, H4_20_23 K20me1: 0.0308
  Average ratio, H4_20_23 unmod: 0.0293
  Average ratio, H2A1_12_17 unmod (AKAKTR): 0.4892
  Average ratio, H2A3_12_17 K15me1 (AKAKSR): 0.4715
PF-9363 (30 mM)
  Average ratio, H2A1_1_11 K5ac: 0.8566
  Average ratio, H2A1_4_11 K5ac: 0.0480
  Average ratio, H2A1_4_11 K9ac: 0.0347
  Average ratio, H2A1_4_11 unmod: 0.9114
  Average ratio, H2A1_36_42 unmod: 0.9988
  Average ratio, H2A3_36_42 unmod: 1.0000
  Average ratio, H2AJ_4_11 K5acK9ac: 0.8922
  Average ratio, H2AV_1_19 K4ac: 0.0413
  Average ratio, H2AV_1_19 unmod: 0.7807
  Average ratio, H2AX_4_11 unmod: 0.3301
  Average ratio, H2AX_36_42 unmod: 1.0000
  Average ratio, H2AZ_1_19 K11ac: 0.0141
  Average ratio, H2AZ_1_19 unmod: 0.9481
  Average ratio, H3_73_83 K79me1: 0.0821
  Average ratio, H3_73_83 K79me2: 0.0558
  Average ratio, H3_73_83 unmod: 0.8605
  Average ratio, H4_4_17 K12acK16ac: 0.1819
  Average ratio, H4_4_17 unmod: 0.4341
  Average ratio, H4_20_23 K20me1: 0.0237
  Average ratio, H4_20_23 unmod: 0.0213
  Average ratio, H2A1_12_17 unmod (AKAKTR): 0.5017
  Average ratio, H2A3_12_17 K15me1 (AKAKSR): 0.4920
Replicate 1, PF-9363 0.1
  Ratio, H2A1_12_17 unmod: 0.4969
  Ratio, H2A3_12_17 K15me1: 0.4799
Replicate 1, PF-9363 1
  Ratio, H2A1_12_17 unmod: 0.5198
  Ratio, H2A3_12_17 K15me1: 0.5023
Replicate 1, PF-9363 10
  Ratio, H2A1_12_17 unmod: 0.4982
  Ratio, H2A3_12_17 K15me1: 0.4848
Replicate 1, PF-9363 30
  Ratio, H2A1_12_17 unmod: 0.5053
  Ratio, H2A3_12_17 K15me1: 0.497
Replicate 2, PF-9363 0.1
  Ratio, H2A1_12_17 unmod: 0.484
  Ratio, H2A3_12_17 K15me1: 0.4685
Replicate 2, PF-9363 1
  Ratio, H2A1_12_17 unmod: 0.4972
  Ratio, H2A3_12_17 K15me1: 0.4788
Replicate 2, PF-9363 10
  Ratio, H2A1_12_17 unmod: 0.498
  Ratio, H2A3_12_17 K15me1: 0.4832
Replicate 2, PF-9363 30
  Ratio, H2A1_12_17 unmod: 0.4993
  Ratio, H2A3_12_17 K15me1: 0.4897
Replicate 3, PF-9363 0.1
  Ratio, H2A1_12_17 unmod: 0.4868
  Ratio, H2A3_12_17 K15me1: 0.466
Replicate 3, PF-9363 1
  Ratio, H2A1_12_17 unmod: 0.5044
  Ratio, H2A3_12_17 K15me1: 0.4869
Replicate 3, PF-9363 10
  Ratio, H2A1_12_17 unmod: 0.4939
  Ratio, H2A3_12_17 K15me1: 0.4755
Replicate 3, PF-9363 30
  Ratio, H2A1_12_17 unmod: 0.5006
  Ratio, H2A3_12_17 K15me1: 0.4892
[1]
  Fold-change 0.1 v 30, H3_3_8 K4me1: 1.02
  Fold-change 0.1 v 30, H3_3_8 unmod: 1.00
[2]
  Average ratio, H3_3_8 K4me1: 0.0973
  Average ratio, H3_3_8 unmod: 0.8963
[3]
  Average ratio, H3_3_8 K4me1: 0.0953
  Average ratio, H3_3_8 unmod: 0.8973
TKQTAR(H3_3_8), dose 0.1
  Ratio, H3_3_8 K4me1: 0.09461 and 0.103 and 0.09428
  Ratio, H3_3_8 unmod: 0.9002 and 0.8874 and 0.9011
TKQTAR(H3_3_8), dose 1
  Ratio, H3_3_8 K4me1: 0.09313 and 0.09156 and 0.09495
  Ratio, H3_3_8 unmod: 0.903 and 0.9014 and 0.9006
TKQTAR(H3_3_8), dose 10
  Ratio, H3_3_8 K4me1: 0.1087 and 0.09351 and 0.1018
  Ratio, H3_3_8 unmod: 0.8856 and 0.9033 and 0.8936
TKQTAR(H3_3_8), dose 30
  Ratio, H3_3_8 K4me1: 0.09818 and 0.09712 and 0.09049
  Ratio, H3_3_8 unmod: 0.8954 and 0.8931 and 0.9034
YQKSTELLIR(H3_54_63), PF-9363 0.1 v 30
  Fold-change 0.1 v 30, H3_54_63 unmod: 0.99
YQKSTELLIR(H3_54_63), PF-9363 (0.1 mM)
  Average ratio, H3_54_63 unmod: 0.9888
YQKSTELLIR(H3_54_63), PF-9363 (30 mM)
  Average ratio, H3_54_63 unmod: 0.9942
YQKSTELLIR(H3_54_63), dose 0.1
  Ratio, H3_54_63 unmod: 0.9974 and 0.9808 and 0.9881
YQKSTELLIR(H3_54_63), dose 1
  Ratio, H3_54_63 unmod: 0.9878 and 0.9887 and 0.9945
YQKSTELLIR(H3_54_63), dose 10
  Ratio, H3_54_63 unmod: 0.9895 and 0 and 0.9781
YQKSTELLIR(H3_54_63), dose 30
  Ratio, H3_54_63 unmod: 0.9962 and 0.9919 and 0.9944
YRPGTVALR(H3_41_49), PF-9363 0.1 v 30
  Fold-change 0.1 v 30, H3_41_49 unmod: 1.00
YRPGTVALR(H3_41_49), PF-9363 (0.1 mM)
  Average ratio, H3_41_49 unmod: 0.9999
YRPGTVALR(H3_41_49), PF-9363 (30 mM)
  Average ratio, H3_41_49 unmod: 0.9999
YRPGTVALR(H3_41_49), dose 0.1
  Ratio, H3_41_49 unmod: 0.9999 and 1 and 0.9998
YRPGTVALR(H3_41_49), dose 1
  Ratio, H3_41_49 unmod: 0.9993 and 1 and 0.9999
YRPGTVALR(H3_41_49), dose 10
  Ratio, H3_41_49 unmod: 0.9997 and 1 and 0.9999
YRPGTVALR(H3_41_49), dose 30
  Ratio, H3_41_49 unmod: 1 (2×) and 0.9996
Average ratio 0.1 v 30
  Fold-change 0.1 v 30, H2A1_1_11 K5ac: 0.99
  Fold-change 0.1 v 30, H2A1_4_11 K5ac: 0.88
  Fold-change 0.1 v 30, H2A1_4_11 K9ac: 1.17
  Fold-change 0.1 v 30, H2A1_4_11 unmod: 0.99
  Fold-change 0.1 v 30, H2A1_36_42 unmod: 1.00
  Fold-change 0.1 v 30, H2A3_36_42 unmod: 1.00
  Fold-change 0.1 v 30, H2AJ_4_11 K5acK9ac: 0.98
  Fold-change 0.1 v 30, H2AV_1_19 K4ac: 0.98
  Fold-change 0.1 v 30, H2AV_1_19 unmod: 1.14
  Fold-change 0.1 v 30, H2AX_36_42 unmod: 1.00
  Fold-change 0.1 v 30, H2AZ_1_19 K11ac: 0.64
  Fold-change 0.1 v 30, H2AZ_1_19 unmod: 0.92
  Fold-change 0.1 v 30, H3_73_83 K79me1: 1.08
  Fold-change 0.1 v 30, H3_73_83 K79me2: 1.32
  Fold-change 0.1 v 30, H3_73_83 unmod: 0.97
  Fold-change 0.1 v 30, H4_4_17 K12acK16ac: 0.05
  Fold-change 0.1 v 30, H4_4_17 unmod: 1.46
  Fold-change 0.1 v 30, H4_20_23 K20me1: 1.30
  Fold-change 0.1 v 30, H4_20_23 unmod: 1.38
